Measured values reported in patent publication US20100075907A1, “NEUROMEDIN U RECEPTOR AGONISTS AND USES THEREOF” (priority 2006, published 2010).
Starred links: 1 amine or outer side, 2 acyl side, 3 side chain; linkers in the order of their positions; H or OH if unused. Residues, ends and D or L forms follow the SMILES beside them. No end group written: not given here. *: point of attachment. X1 = CC(C)CCC[C@@H](C)[C@H]1CC[C@H]2[C@@H]3CC=C4C[C@@H](OC(=O)C*)CC[C@]4(C)[C@H]3CC[C@]12C; X2 = CCN1C(=O)CC(SC[C@H](NC(C)=O)C(=O)NCCCOCCOCCOCCCN*)C1=O; Succinimide(1-Et,3-yl) = CCN1C(=O)CC(*)C1=O; Palmitoyl = CCCCCCCCCCCCCCCC(=O)*; Suc = O=C(CCC(=O)[*:2])[*:1]

Target: T1, Mouse NMUR1-CTG (Mus musculus, UniProt O55040)
T1 sequence (O55040 1-428): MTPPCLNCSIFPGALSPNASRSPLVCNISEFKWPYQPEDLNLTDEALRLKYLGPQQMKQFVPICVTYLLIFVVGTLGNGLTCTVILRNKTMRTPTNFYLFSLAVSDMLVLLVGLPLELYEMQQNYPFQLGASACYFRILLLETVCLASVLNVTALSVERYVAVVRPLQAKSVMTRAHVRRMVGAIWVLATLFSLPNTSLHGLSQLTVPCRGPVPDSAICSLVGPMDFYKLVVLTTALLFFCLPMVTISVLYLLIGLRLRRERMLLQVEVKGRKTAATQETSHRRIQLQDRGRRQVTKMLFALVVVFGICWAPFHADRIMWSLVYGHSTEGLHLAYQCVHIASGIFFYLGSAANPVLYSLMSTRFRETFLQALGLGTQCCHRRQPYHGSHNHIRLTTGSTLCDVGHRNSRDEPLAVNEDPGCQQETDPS
Assay: FLIPR calcium mobilization assay, mouse NMUR1-CTG
Format: cell-based
Design: expressed in transfected cells; host or cells: FLP-In CHO or HEK-293 FLP-In cells (pcDNA5)
Conditions: mouse NMUR1-CTG; for % Activity: maximum response at 1 μM compared to hNMU-25; for EC50: FLIPR
Description: Human, mouse or rat cDNAs encoding NMUR1 or NMUR2 (as described in Howard et al. Nature 406: 70-74 (2000) were subcloned in pcDNA5 (Invitrogen) and transfected into FLP-In CHO cells and HEK-293 FLP-In cells purchased from Invitrogen (Carlsbad, Calif.) using lipofectamine (Invitrogen). The Flp-In system allows integration and expression of a particular gene of interest at a specific genomic location utilizing the Flp recombinase from yeast. The transfected cells were selected by growth in medium containing 200 μg/mL hygromycin (Invitrogen). Populations were frozen at early passage numbers, and these stocks were used for further studies. Stable clones that expressed the mRNAs were identified functionally by FLIPR as well as by RT-PCR. […] Two different rodent NMUR1 cell lines were thus generated: one with the codon as predicted from the genomic databases and another cell line with an engineered methionine (ATG) as the start codon. Additionally, stable cell lines expressing the human receptors were generated in HEK-293/aeq17 cells which stably express the aequorin gene under the CMV promoter. The human NMUR2 cDNA was cloned into pcDNA3.1 and human NMUR1 was subcloned into pIRES-puro (Clontech, Mountain View, Calif.), after transfection cells were selected in media containing G418 and either hygromycin (NMUR2) or puromycin (NMUR1).
The NMU receptors signal primarily through Gαq/11 proteins; therefore calcium mobilization assays can be utilized for functional activity.
Stable cell lines expressing human and or rodent NMUR1 or human NMUR2 receptors were plated at a density of 12,000 cells per well overnight on poly-lysine coated 384-well black-walled plates. The following day, the media was removed from the plates and the cells were subsequently loaded with Fluo-3 (Molecular Probes), a calcium sensitive dye, diluted in FLIPR buffer (1× Hank's buffered saline containing 20 mM HEPES, 0.1% BSA, 2.5 mM probenecid (Sigma) and 1.6 mM TR40). All reagents are from Invitrogen unless otherwise noted. Peptide stocks were resuspended in DMSO at a stock concentration of 2 mM and diluted in FLIPR buffer on the day of the experiment to a 4 μM working stock solution.
After a 90 minute incubation at room-temperature, cell plates were loaded onto a FLIPR (Molecular Devices) to monitor cellular fluorescence (excitation=488 nm; emission=540 nm) before and after compound/peptide addition. Eight to twelve point dose responses were tested on NMUR-expressing cell lines using FLIPR with 1 μM peptide as the highest dose. The response after peptide addition was taken as the maximum fluorescence units minus the fluorescence immediately prior to stimulation for each well. EC50 values were calculated using GraphPad Prism (San Diego, Calif.) software.
In vitro responses of Neuromedin U receptor agonists (NMU1 to NMU25) in the FLIPR assay for human (Table 3), mouse (Table 4) and rat (Table 5) NMUR1 and NMUR2. EC50s are reported in nM values. Percent activity refers to the maximum response at 1 μM compared to the hNMU-25 response at the same concentration. NT=not tested.

| % Activity [%] | EC50 [nM] | Compound |
| --- | --- | --- |
| 100 |  | CCN1C(=O)CC(SC[C@H](NC(C)=O)C(=O)NCC(=O)N[C@@H](Cc2ccc(O)cc2)C(=O)N[C@@H](Cc2ccccc2)C(=O)N[C@@H](CC(C)C)C(=O)N[C@@H](Cc2ccccc2)C(=O)N[C@@H](CCCNC(=N)N)C(=O)N2CCC[C@H]2C(=O)N[C@@H](CCCNC(=N)N)C(=O)N[C@@H](CC(N)=O)C(N)=O)C1=O (some centres unmarked) [NMU6] (Ac-C(Succinimide(1-Et,3-yl))GYFLFRPRN-NH2) |
| 100 |  | CCN1C(=O)CC(SC[C@H](NC(C)=O)C(=O)N[C@@H](Cc2ccccc2)C(=O)N[C@@H](CCCNC(=N)N)C(=O)N[C@H](C(=O)N[C@@H](CC(=O)O)C(=O)N[C@@H](CCC(=O)O)C(=O)N[C@@H](CCC(=O)O)C(=O)N[C@@H](Cc2ccccc2)C(=O)N[C@@H](CCC(N)=O)C(=O)N[C@@H](CO)C(=O)N2CCC[C@H]2C(=O)N[C@@H](Cc2ccccc2)C(=O)N[C@@H](C)C(=O)N[C@@H](CO)C(=O)N[C@@H](CCC(N)=O)C(=O)N[C@@H](CO)C(=O)N[C@@H](CCCNC(=N)N)C(=O)NCC(=O)N[C@@H](Cc2ccc(O)cc2)C(=O)N[C@@H](Cc2ccccc2)C(=O)N[C@@H](CC(C)C)C(=O)N[C@@H](Cc2ccccc2)C(=O)N[C@@H](CCCNC(=N)N)C(=O)N2CCC[C@H]2C(=O)N[C@@H](CCCNC(=N)N)C(=O)N[C@@H](CC(N)=O)C(N)=O)C(C)C)C1=O (some centres unmarked) [NMU8] (Ac-C(Succinimide(1-Et,3-yl))FRVDEEFQSPFASQSRGYFLFRPRN-NH2) |
| 100 |  | CCN1C(=O)CC(SC[C@H](NC(C)=O)C(=O)NCCCOCCOCCOCCCNC(=O)CCC(=O)N[C@@H](Cc2ccccc2)C(=O)N[C@@H](CC(C)C)C(=O)N[C@@H](Cc2ccccc2)C(=O)N[C@@H](CCCNC(=N)N)C(=O)N2CCC[C@H]2C(=O)N[C@@H](CCCNC(=N)N)C(=O)N[C@@H](CC(N)=O)C(N)=O)C1=O (some centres unmarked) [NMU15, Ac-C1-Ttds-FLFRPRN-CONH2] ({X2-Suc}-FLFRPRN-NH2) |
| 116.6 | 2.9 | CCN1C(=O)CC(SC[C@H](NC(C)=O)C(=O)N[C@@H](C)C(=O)N[C@@H](CO)C(=O)N[C@@H](CCC(N)=O)C(=O)N[C@@H](CO)C(=O)N[C@@H](CCCNC(=N)N)C(=O)NCC(=O)N[C@@H](Cc2ccc(O)cc2)C(=O)N[C@@H](Cc2ccccc2)C(=O)N[C@@H](CC(C)C)C(=O)N[C@@H](Cc2ccccc2)C(=O)N[C@@H](CCCNC(=N)N)C(=O)N2CCC[C@H]2C(=O)N[C@@H](CCCNC(=N)N)C(=O)N[C@@H](CC(N)=O)C(N)=O)C1=O (some centres unmarked) [NMU17] (Ac-C(Succinimide(1-Et,3-yl))ASQSRGYFLFRPRN-NH2) |
| 110.8 |  | CCN1C(=O)CC(SC[C@H](NC(C)=O)C(=O)N[C@@H](Cc2ccccc2)C(=O)N[C@@H](CCC(N)=O)C(=O)N[C@@H](CO)C(=O)N2CCC[C@H]2C(=O)N[C@@H](Cc2ccccc2)C(=O)N[C@@H](C)C(=O)N[C@@H](CO)C(=O)N[C@@H](CCC(N)=O)C(=O)N[C@@H](CO)C(=O)N[C@@H](CCCNC(=N)N)C(=O)NCC(=O)N[C@@H](Cc2ccc(O)cc2)C(=O)N[C@@H](Cc2ccccc2)C(=O)N[C@@H](CC(C)C)C(=O)N[C@@H](Cc2ccccc2)C(=O)N[C@@H](CCCNC(=N)N)C(=O)N2CCC[C@H]2C(=O)N[C@@H](CCCNC(=N)N)C(=O)N[C@@H](CC(N)=O)C(N)=O)C1=O (some centres unmarked) [NMU19] (Ac-C(Succinimide(1-Et,3-yl))FQSPFASQSRGYFLFRPRN-NH2) |
| 100 |  | CCN1C(=O)CC(SC[C@H](NC(C)=O)C(=O)N[C@@H](CSC2CC(=O)N(CC)C2=O)C(=O)N[C@@H](Cc2ccccc2)C(=O)N[C@@H](CCCNC(=N)N)C(=O)N[C@H](C(=O)N[C@@H](CC(=O)O)C(=O)N[C@@H](CCC(=O)O)C(=O)N[C@@H](CCC(=O)O)C(=O)N[C@@H](Cc2ccccc2)C(=O)N[C@@H](CCC(N)=O)C(=O)N[C@@H](CO)C(=O)N2CCC[C@H]2C(=O)N[C@@H](Cc2ccccc2)C(=O)N[C@@H](C)C(=O)N[C@@H](CO)C(=O)N[C@@H](CCC(N)=O)C(=O)N[C@@H](CO)C(=O)N[C@@H](CCCNC(=N)N)C(=O)NCC(=O)N[C@@H](Cc2ccc(O)cc2)C(=O)N[C@@H](Cc2ccccc2)C(=O)N[C@@H](CC(C)C)C(=O)N[C@@H](Cc2ccccc2)C(=O)N[C@@H](CCCNC(=N)N)C(=O)N2CCC[C@H]2C(=O)N[C@@H](CCCNC(=N)N)C(=O)N[C@@H](CC(N)=O)C(N)=O)C(C)C)C1=O (some centres unmarked) [NMU22] (Ac-C(Succinimide(1-Et,3-yl))C(Succinimide(1-Et,3-yl))FRVDEEFQSPFASQSRGYFLFRPRN-NH2) |
| 56.1 |  | CCCCCCCCCCCCCCCC(=O)N[C@@H](CSC1CC(=O)N(CC)C1=O)C(=O)N[C@@H](Cc1ccccc1)C(=O)N[C@@H](CCCNC(=N)N)C(=O)N[C@H](C(=O)N[C@@H](CC(=O)O)C(=O)N[C@@H](CCC(=O)O)C(=O)N[C@@H](CCC(=O)O)C(=O)N[C@@H](Cc1ccccc1)C(=O)N[C@@H](CCC(N)=O)C(=O)N[C@@H](CO)C(=O)N1CCC[C@H]1C(=O)N[C@@H](Cc1ccccc1)C(=O)N[C@@H](C)C(=O)N[C@@H](CO)C(=O)N[C@@H](CCC(N)=O)C(=O)N[C@@H](CO)C(=O)N[C@@H](CCCNC(=N)N)C(=O)NCC(=O)N[C@@H](Cc1ccc(O)cc1)C(=O)N[C@@H](Cc1ccccc1)C(=O)N[C@@H](CC(C)C)C(=O)N[C@@H](Cc1ccccc1)C(=O)N[C@@H](CCCNC(=N)N)C(=O)N1CCC[C@H]1C(=O)N[C@@H](CCCNC(=N)N)C(=O)N[C@@H](CC(N)=O)C(N)=O)C(C)C (some centres unmarked) [NMU24] (Palmitoyl-C(Succinimide(1-Et,3-yl))FRVDEEFQSPFASQSRGYFLFRPRN-NH2) |
| 65.4 | 480 | Ac-C2FQSPFASQSRGYFLFRPRN-CONH2 ({Ac-C(PEG 40 kDa)}-FQSPFASQSRGYFLFRPRN-NH2; not fully specified; printed as Ac-C2FQSPFASQSRGYFLFRPRN-CONH2) [NMU20, C2 = Cys(PEG)240 kDa] |
| 50.9 | 770 | Ac-C4-C4-FRVDEEFQSPFASQSRGYFLFRPRN-CONH2 ({Ac-C(PEG 20 kDa)-C(PEG 20 kDa)}-FRVDEEFQSPFASQSRGYFLFRPRN-NH2) [NMU23, C4 = Cys(PEG)20 kDa] |
| 90.8 | 56.3 | Ac-C4FRVDEEFQSPFASQSRGYFLFRPRN-CONH2 ({Ac-C(PEG 20 kDa)}-FRVDEEFQSPFASQSRGYFLFRPRN-NH2) [NMU21, C4 = Cys(PEG)20 kDa] |
| 100 |  | Ac-FRVDEEFQSPFASQSRGYFLFRPRN-NH2 [NMU2] |
| 100 |  | Ac-FRVDEEFQSPFASQSRPYFLFRPRN-NH2 [NMU5] |
| 100 |  | GYFLFRPRN-NH2 [NMU3] |
| 100 |  | H-FRVDEEFQSPFASQSRPYFLFRPRN-NH2 [NMU4] |
|  | 60.3 | Pam-C2FRVDEEFQSPFASQSRGYFLFRPRN-CONH2 ({Palmitoyl-C(PEG 40 kDa)}-FRVDEEFQSPFASQSRGYFLFRPRN-NH2) [NMU25, Pam = palmitoyl; C2 = Cys(PEG)240 kDa] |

| Compound | % Activity [%] | EC50 [nM] |
| --- | --- | --- |
| CC(=O)N[C@@H](CSCC(=O)O[C@H]1CC[C@@]2(C)C(=CC[C@H]3[C@@H]4CC[C@H]([C@H](C)CCCC(C)C)[C@@]4(C)CC[C@@H]32)C1)C(=O)NCC(=O)N[C@@H](Cc1ccc(O)cc1)C(=O)N[C@@H](Cc1ccccc1)C(=O)N[C@@H](CC(C)C)C(=O)N[C@@H](Cc1ccccc1)C(=O)N[C@@H](CCCNC(=N)N)C(=O)N1CCC[C@H]1C(=O)N[C@@H](CCCNC(=N)N)C(=O)N[C@@H](CC(N)=O)C(N)=O [NMU11] (Ac-C(X1)GYFLFRPRN-NH2) | 65.0 |  |
